Results taken from paper PMC7158045 (BMC Plant Biology, 2020).

Legend:
Assay in all cases: biochemical
[1] = biological target: T1, ZmDRIK1 (DROUGHT RESPONSIVE INACTIVE KINASE 1), kinase domain (Zea mays, UniProt C0P4K9); conditions: read-out: dTm B, sheet ZmDRIK1-R187-S514;; DSF, Boltzmann fit, 0.1% DMSO
T1 construct: gene ZEAMMB73_Zm00001d028770; ZmDRIK1-KD R187-S514 (kinase domain)
T1 sequence (C0P4K9 187-514): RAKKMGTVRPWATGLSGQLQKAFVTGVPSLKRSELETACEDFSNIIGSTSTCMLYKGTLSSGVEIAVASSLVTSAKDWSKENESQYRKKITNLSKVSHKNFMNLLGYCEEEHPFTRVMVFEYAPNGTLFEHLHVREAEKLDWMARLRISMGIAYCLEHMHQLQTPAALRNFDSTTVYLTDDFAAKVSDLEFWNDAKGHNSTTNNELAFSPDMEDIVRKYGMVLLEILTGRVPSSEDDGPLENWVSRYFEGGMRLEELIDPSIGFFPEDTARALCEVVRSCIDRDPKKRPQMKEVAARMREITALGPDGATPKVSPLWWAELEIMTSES

ZmDRIK1-R187-P492 = biological target: T2, ZmDRIK1-R187-P492 (Zea mays, UniProt C0P4K9); conditions: read-out: dTm B, DSF, Boltzmann fit, 0.1% DMSO
T2 construct: kinase domain, R187-P492
T2 sequence (C0P4K9 1-514): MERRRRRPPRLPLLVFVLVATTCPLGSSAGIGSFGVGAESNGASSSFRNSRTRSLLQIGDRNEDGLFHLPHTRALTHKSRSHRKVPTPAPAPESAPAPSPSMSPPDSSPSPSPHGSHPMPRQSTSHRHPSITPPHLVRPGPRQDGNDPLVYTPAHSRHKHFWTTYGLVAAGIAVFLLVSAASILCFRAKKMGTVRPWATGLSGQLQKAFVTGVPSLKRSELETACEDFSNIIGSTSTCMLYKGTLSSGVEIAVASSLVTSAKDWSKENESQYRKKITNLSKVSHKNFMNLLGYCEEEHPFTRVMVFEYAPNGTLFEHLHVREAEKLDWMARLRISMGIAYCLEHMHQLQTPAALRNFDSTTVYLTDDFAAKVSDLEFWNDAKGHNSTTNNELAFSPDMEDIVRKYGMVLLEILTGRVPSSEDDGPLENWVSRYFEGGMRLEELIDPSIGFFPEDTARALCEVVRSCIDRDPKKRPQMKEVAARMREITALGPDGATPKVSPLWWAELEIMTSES

ZmDRIK1-K217-P492 = biological target: T3, ZmDRIK1-K217-P492 (Zea mays, UniProt C0P4K9); conditions: read-out: dTm B, sheet ZmDRIK1-K217-P492;; DSF, Boltzmann fit, 0.1% DMSO
T3 construct: kinase domain, K217-P492
T3 sequence (C0P4K9 1-514): T2 sequence (C0P4K9 1-514)

ZmDRIK1-K217-S514 = biological target: T4, ZmDRIK1-K217-S514 (Zea mays, UniProt C0P4K9); conditions: read-out: dTm B, sheet ZmDRIK1-K217-S514;; DSF, Boltzmann fit, 0.1% DMSO
T4 construct: kinase domain, K217-S514
T4 sequence (C0P4K9 1-514): T2 sequence (C0P4K9 1-514)

SMILES	ΔTm at 10 µM [1] [°C]	ΔTm at 10 µM (ZmDRIK1-R187-P492) [°C]	ΔTm at 10 µM (ZmDRIK1-K217-P492) [°C]	ΔTm at 10 µM (ZmDRIK1-K217-S514) [°C]
O=c1cc(-c2cccc3c2Sc2ccccc2S3)oc(N2CCOCC2)c1 [KU-55933 (ATM Kinase Inhibitor)]	-0.601	-0.282	-1.32	-0.342
C[C@@H]1CN(CC(=O)Nc2ccc3c(c2)Cc2cccc(-c4cc(=O)cc(N5CCOCC5)o4)c2S3)C[C@H](C)O1 [KU-60019]	-1.17	-0.366	-1.19	-0.426
COc1ccc(-c2ccc3c(N4CCOCC4)nc(N4C[C@@H](C)O[C@@H](C)C4)nc3n2)cc1CO [KU-0063794]	-0.516	-0.299	-1.21	-0.302
O=C(Cc1ccc(-c2ccc(OCCN3CCOCC3)cc2)cn1)NCc1ccccc1 [KX2-391]	-0.49	-0.338	-0.496	-0.346
COc1cc2nccc(Oc3ccc(NC(=O)NC4CC4)c(Cl)c3)c2cc1C(N)=O [Lenvatinib (E7080)]	-1.04	-0.406	-1.02	-0.299
Cc1ccc(F)c(NC(=O)Nc2ccc(-c3cccc4[nH]nc(N)c34)cc2)c1 [Linifanib (ABT-869)]	-0.711	-0.414	-4.15	-0.66
Cc1c(F)cc(C(=O)NC2CC2)cc1-c1ccc(C(=O)NCC(C)(C)C)cn1 [Losmapimod (GW856553X)]	-0.594	-0.242	-0.577	-0.464
Cn1cnc2c(F)c(Nc3ccc(Br)cc3F)c(C(=O)NOCCO)cc21 [MEK162 (ARRY-162)]	-0.978	-0.189	-1.3	-0.461
NC1(c2ccc(-c3nc4ccn5c(=O)[nH]nc5c4cc3-c3ccccc3)cc2)CCC1 [MK-2206 2HCl]	-1.02	-0.104	-0.178	-0.181
O=C(O)[C@]1(Cc2cccc(Nc3nccs3)n2)CC[C@@H](Oc2cccc(Cl)c2F)CC1 [MK-5108 (VX-689)]	-1.14	-0.282	-0.754	-0.299

Other lines, results leading:

ΔTm at 10 µM [1] [°C]	ΔTm at 10 µM (ZmDRIK1-R187-P492) [°C]	ΔTm at 10 µM (ZmDRIK1-K217-P492) [°C]	ΔTm at 10 µM (ZmDRIK1-K217-S514) [°C]	SMILES
-0.807	-0.0311	-0.672	-0.13	O=C(c1ccc(/C=C/c2n[nH]c3ccccc23)cc1)N1CCNCC1 [KW-2449]
-0.172	0.533	0.0733	0.865	COc1ccccc1-c1cc(Nc2cccc(CS(N)(=O)=O)c2)ncn1 [LDC000067]
-0.744	-0.522	-1.23	-0.431	Cc1cc(Nc2ncc(Cl)c(Nc3ccccc3S(=O)(=O)C(C)C)n2)c(OC(C)C)cc1C1CCNCC1 [LDK378]
-0.881	-0.0828	-0.874	-0.184	O=c1cc(N2CCOCC2)oc2c(-c3ccccc3)cccc12 [LY294002]
-0.95	-0.267	-0.453	-0.619	CC(C)(C)Cn1c(N)nc2ccc(-c3[nH]c(C(C)(C)C)nc3-c3ccc(F)cc3)nc21 [LY2228820]
-0.608	-0.548	-0.992	-0.525	Cc1cnc(NC(=O)Nc2cc(Br)c(C)cc2OC[C@@H]2CNCCO2)cn1 [LY2603618]
-0.894	-0.165	-0.85	-0.0976	Cc1cc(Nc2cc(CN3CCOCC3)c3nc(C)c(Cc4ccc(Cl)cc4F)n3n2)n[nH]1 [LY2784544]
-0.878	-0.433	-0.986	-0.201	CCN1CCN(Cc2ccc(Nc3ncc(F)c(-c4cc(F)c5nc(C)n(C(C)C)c5c4)n3)nc2)CC1 [LY2835219]
0.487	0.983	0.174	0.891	O=C(c1cccc(Cl)c1F)N1CCN(Cc2cccc(Nc3nccs3)n2)CC1 [MK-8745]
